Data as given in ChEMBL document CHEMBL1136571, “Design, synthesis and structure-activity relationships of benzoxazinone-based factor Xa inhibitors” (Bioorg Med Chem Lett, 2003).
pIC50: −log10 of the molar value.

Columns and labels:
Prothrombin [1] = molecular target: T1, Prothrombin (Homo sapiens, UniProt P00734)
Anionic trypsin-2 = molecular target: T2, Anionic trypsin-2 (Rattus norvegicus, UniProt P00763); assay: Inhibitory concentration against trypsin
T2 sequence (P00763 whole entry): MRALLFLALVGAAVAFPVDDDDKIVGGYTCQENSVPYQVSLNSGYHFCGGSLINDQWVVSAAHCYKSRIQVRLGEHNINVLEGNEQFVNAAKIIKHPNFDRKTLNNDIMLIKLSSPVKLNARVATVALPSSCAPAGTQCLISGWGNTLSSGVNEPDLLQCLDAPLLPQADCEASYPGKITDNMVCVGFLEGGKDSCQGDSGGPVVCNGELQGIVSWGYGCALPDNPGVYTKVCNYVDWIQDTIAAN

Coagulation factor X = Coagulation factor X (Homo sapiens, UniProt P00742); assay: Inhibitory concentration to factor Xa
[2] = Half-life period in rats following intravenous administration at 2 mg/kg; type: ADME, organism-based; set-up: dose 2 mg/kg, route intravenous; conditions: rat, in vivo
[3] = Bioavailability in rat at an oral dose of 2 mg/kg; type: ADME, organism-based; conditions: in vivo
Oryctolagus cuniculus [4] = assay: Percent inhibition of thrombosis at the dose of 50 ug/kg in rabbit deep vein thrombosis model; type: functional
Oryctolagus cuniculus [5] = assay: Percent inhibition of thrombosis at the dose of 100 ug/kg in rabbit deep vein thrombosis model; type: functional
[6] = Half-life period in rabbits following intravenous administration at 2 mg/kg; type: ADME, organism-based, Oryctolagus cuniculus; set-up: dose 2 mg/kg, route intravenous; conditions: rabbit, in vivo
Oryctolagus cuniculus [7] = assay: Plasma concentration at the dose of 100 ug/kg in rabbit; type: functional, organism-based
Oryctolagus cuniculus [8] = assay: Percent inhibition of thrombosis at the dose of 25 ug/kg in rabbit deep vein thrombosis model; type: functional; conditions: at 25 µg/kg
Prothrombin [9] = molecular target: T1, Prothrombin; assay: Inhibitory concentration against factor IIa

Sequence of Coagulation factor X (P00742 41-179 limits assumed): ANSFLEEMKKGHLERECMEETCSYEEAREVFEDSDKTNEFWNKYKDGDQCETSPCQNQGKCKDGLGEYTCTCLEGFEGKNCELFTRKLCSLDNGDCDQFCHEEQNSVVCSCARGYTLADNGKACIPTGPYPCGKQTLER
Sequence of Coagulation factor X (P00742 235-488 limits assumed): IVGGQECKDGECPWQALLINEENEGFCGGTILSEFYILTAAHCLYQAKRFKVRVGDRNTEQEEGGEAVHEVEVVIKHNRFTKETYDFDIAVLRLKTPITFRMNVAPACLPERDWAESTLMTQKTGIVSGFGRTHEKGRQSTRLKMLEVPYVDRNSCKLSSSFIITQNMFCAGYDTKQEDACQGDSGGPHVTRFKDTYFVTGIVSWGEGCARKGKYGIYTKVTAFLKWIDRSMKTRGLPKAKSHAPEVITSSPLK

Row | Structure (SMILES) | pIC50 (Prothrombin [1]) | pIC50 (Anionic trypsin-2) | pIC50 (Coagulation factor X) | further results
1 | Cc1cc(CN(c2ccc(-c3ccccc3S(N)(=O)=O)cc2)S(C)(=O)=O)n(-c2cccc(C(=N)N)c2)n1 | – | – | 6.30 | –
2 | CC(=N)N1CCC(Oc2ccc(N(Cc3cc(C)n(-c4cccc(C(=N)N)c4)n3)S(C)(=O)=O)cc2)CC1 | < 5.00 | 5.68 | – | –
3 | Cc1cc(CN(c2ccc(-c3ccccc3S(N)(=O)=O)cc2)S(C)(=O)=O)nn1-c1cccc(C(=N)N)c1 | – | – | 5.41 | –
4 | CC(=N)N1CCC(Oc2ccc(N(Cc3cc(-c4cccc(C(=N)N)c4)no3)S(C)(=O)=O)cc2)CC1 | < 5.00 | < 5.00 | 7.85 | –
5 | CCn1c(CN2C(=O)COc3cc(OC4CCN(C(C)=N)CC4)ccc32)cc2ccc(C(=N)N)cc21 | – | 7.24 | 8.70 | –
6 | CC(=N)N1CCC(Oc2ccc3c(c2)OCC(=O)N3Cc2cc3ccc(C(=N)N)cc3n2C)CC1 | – | 7.12 | – | –
7 | CC(=N)N1CCC(Oc2ccc3c(c2)OCC(=O)N3Cc2ccc3ccc(C(=N)N)cc3c2)CC1 | – | 7.55 | – | half-life [2]: 30 min; bioavailability [3]: 4.6%; inhibition in vivo at 0.05 mg/kg (Oryctolagus cuniculus [4]): 44%; inhibition in vivo at 0.1 mg/kg (Oryctolagus cuniculus [5]): 99%; half-life [6]: 54 min; Concentration (Oryctolagus cuniculus [7]): 200 nM; inhibition in vivo at 0.025 mg/kg (Oryctolagus cuniculus [8]): 7%; pIC50 (Prothrombin [9]): < 5.00
8 | CC(=N)N1CCC(Oc2ccc(N(Cc3ccccc3-c3ccc(C(=N)N)cc3)S(C)(=O)=O)cc2)CC1 | < 5.00 | < 5.00 | < 5.00 | –
9 | CC(=N)N1CCC(Oc2ccc(N(Cc3ccc(-c4cccc(C(=N)N)c4)cc3)S(C)(=O)=O)cc2)CC1 | < 5.00 | 6.11 | – | –
10 | CC(=N)N1CCC(Oc2ccc(N(Cc3cc(C)nn3-c3cccc(C(=N)N)c3)S(C)(=O)=O)cc2)CC1 | < 5.00 | < 5.00 | – | –
11 | CS(=O)(=O)N(Cc1cccc(-c2cccc(C(=N)N)c2)c1)c1ccc(-c2ccccc2S(N)(=O)=O)cc1 | – | – | 6.72 | –
12 | CC(=N)N1CCC(Oc2ccc3c(c2)OCC(=O)N3Cc2cccc(-c3cccc(C(=N)N)c3)c2)CC1 | < 5.00 | 6.84 | – | –
13 | CCOC(=O)CS(=O)(=O)N(Cc1cc2cc(C(=N)N)ccc2s1)c1ccc(OC2CCN(C(C)=N)CC2)cc1 | – | 7.07 | – | –
14 | CC(=N)N1CCC(Oc2ccc(N(Cc3ccc4ccc(C(=N)N)cc4c3)S(=O)(=O)CC(=O)O)cc2)CC1 [YM-60828] | – | 7.20 | – | –
15 | CC(=N)N1CCC(Oc2ccc(N(Cc3cc4ccc(C(=N)N)cc4n3C)S(C)(=O)=O)cc2)CC1 | < 5.00 | 7.60 | 9.10 | –
16 | CC(=N)N1CCC(Oc2ccc(N(Cc3ccccc3-c3cccc(C(=N)N)c3)S(C)(=O)=O)cc2)CC1 | < 5.00 | < 5.00 | 5.15 | –
17 | CCOC(=O)CS(=O)(=O)N(Cc1ccc2ccc(C(=N)N)cc2c1)c1ccc(OC2CCN(C(C)=N)CC2)cc1 | – | 7.08 | 8.22 | –
18 | CC(=N)N1CCC(Oc2ccc(N(Cc3cc4cc(C(=N)N)ccc4s3)S(C)(=O)=O)cc2)CC1 | < 5.00 | 7.68 | – | –

The next lines start with results.

Row | pIC50 (Prothrombin [1]) | pIC50 (Anionic trypsin-2) | pIC50 (Coagulation factor X) | Structure (SMILES) | further results
19 | < 5.00 | 3.60 | – | CC(=N)N1CCC(Oc2ccc3c(c2)OCC(=O)N3Cc2cc(-c3cccc(C(=N)N)c3)no2)CC1 | –
20 | – | 6.57 | 8.52 | CC(=N)N1CCC(Oc2ccc(N(Cc3cccc(-c4cccc(C(=N)N)c4)c3)S(=O)(=O)CC(=O)O)cc2)CC1 | –
21 | – | 7.20 | 8.52 | CC(=N)N1CCC(Oc2ccc(N(Cc3cc4cc(C(=N)N)ccc4s3)S(=O)(=O)CC(=O)O)cc2)CC1 | –
22 | – | 6.53 | 8.15 | CCOC(=O)CS(=O)(=O)N(Cc1cccc(-c2cccc(C(=N)N)c2)c1)c1ccc(OC2CCN(C(C)=N)CC2)cc1 | –
23 | – | – | 6.82 | CS(=O)(=O)N(Cc1ccc2ccc(C(=N)N)cc2c1)c1ccc(-c2ccccc2S(N)(=O)=O)cc1 | –
24 | – | – | 5.80 | CC(=N)N1CCN(C(=O)c2ccc(N(Cc3ccc4ccc(C(=N)N)cc4c3)S(C)(=O)=O)cc2)CC1 | –
25 | < 5.00 | 6.78 | 7.51 | CC(=N)N1CCC(Oc2ccc(N(Cc3cc4cc(C(=N)N)ccc4n3C)S(C)(=O)=O)cc2)CC1 | –
26 | < 5.00 | 7.03 | 8.22 | CC(=N)N1CCC(Oc2ccc(N(Cc3ccc4ccc(C(=N)N)cc4c3)S(C)(=O)=O)cc2)CC1 | –
27 | < 5.00 | 6.44 | – | CC(=N)N1CCC(Oc2ccc(N(Cc3cccc(-c4cccc(C(=N)N)c4)c3)S(C)(=O)=O)cc2)CC1 | –
